In article PMC9220178, “Preclinical Characterization of Antioxidant Quinolyl Nitrone QN23 as a New Candidate for the Treatment of Ischemic Stroke” (Antioxidants, 2022):

How the values were obtained:
[1] = system: experimental cerebral ischemia; design: method as in PMID 30715875; conditions: 1.5 mg/kg intraperitoneally; cited from earlier work
[2] = system: male Wistar rats, transient middle cerebral artery occlusion (tMCAO); assay: Neurofunctional score in transient focal cerebral ischemia (tMCAO); format: in vivo; conditions: for Neurofunctional impairment compared with vehicle: 24 h and 48 h
Experimental: For the transient focal cerebral ischemia experimental model we used 12-week-old male Wistar rats (300–350 g, Charles River), housed under standard conditions with food and water ad libitum. The animals were anesthetized by an intraperitoneal injection of a mixture of 100 mg/kg ketamine, 5 mg/kg diazepam, and 0.3 mg/kg atropine. Anesthesia was maintained during the surgical procedure by inhalation of 1–1.5% sevoflurane in 80% medicinal air plus 20% O2. For the transient occlusion of the right middle cerebral artery (tMCAO, 60 min), we followed the intraluminal suture procedure as originally described, adapted to our experimental setup. The procedure included continuous monitoring of cortical perfusion (CP, by Laser-Doppler flowmetry), arterial blood pressure, and core temperature, and discontinuous measurement of glycemia levels during preischemia (basal), ischemia, and reperfusion stages. Buprenorphine (subcutaneous, 0.05 mg/kg) was used as an analgesic. Forty-eight hours after the ischemic insult, the animals were euthanized by intracardiac injection of potassium chloride (200 mg/kg) under deep anesthesia, and the brains were obtained.
A power analysis (see above) provided a sample size of 6 subjects per group. A total of 35 animals was used in this study. The animals were randomly assigned to four experimental tMCAO groups, treated with (1) vehicle; (2) QN23, 1.5 mg/kg; (3) QN23, 2.5 mg/kg; and (4) QN23, 4 mg/kg. QN23 was dissolved in vehicle and injected through the femoral vein 20 min after the end of tMCAO. Nine animals were excluded from the study, based on predefined criteria, because of death within the first 24 h after the procedure (1 vehicle, 1 QN23-treated at 2.5 mg/kg, and 4 QN23-treated at 4.0 mg/kg) or due to no infarct after the procedure (1 vehicle, 1 QN23-treated at 1.5 mg/kg, and 1 QN23-treated at 2.5 mg/kg). Experiments were conducted in compliance with the legislation on the protection of animals used for scientific purposes in Spain (RD 53/2013) and the EU (Directive 2010/63/EU). […]
Twenty-four and 48 hours after the ischemic insult, the rats’ neurofunctional status was evaluated following the procedure previously reported. The severity of functional deficits was determined with the sum of the score of four tests assessing (a) spontaneous activity (moving/exploring = 0, no moving or moving only when pushed = 1), (b) circling to the left (none = 0, circling when elevated by the tail and pushed = 1, circling without displacement, spinning = 2), (c) parachute reflex: protective abduction of forelimbs (symmetrical = 0, asymmetrical, contralateral forelimb retracted = 1), and (d) resistance to left forepaw stretching (not allowed = 0, allowed = 1). […]

[3] = system: carrageenan-induced rat paw edema; design: method as in PMID 30715875; conditions: cited from earlier work
[4] = system: adult male Wistar rats, four-vessel occlusion (4VO) transient forebrain ischemia; assay: Neurological deficit score (NDS) after global cerebral ischemia (4VO); format: in vivo, rat; conditions: R5d
Experimental: Transient forebrain ischemia was induced in adult male Wistar rats (10–12 weeks, Charles River, L’Arbresle, France) by the standard four-vessel occlusion (4VO) model previously described. Briefly, animals were anesthetized by intraperitoneal injection of a combination of ketamine, diazepam, and atropine (62.5, 5.0, and 0.25 mg/kg, respectively); positioned in a stereotactic device; and both vertebral arteries were cauterized. The next day, anesthesia was induced with 4% isoflurane and maintained at 2–2.5% isoflurane for carotid artery dissection. After anesthesia withdrawal, the carotid arteries were occluded with an atraumatic vascular clamp to induce brain ischemia. During the entire surgical procedure, temperature was monitored at 2 min intervals and kept at 37 °C. After 15 min of ischemia, the carotid arteries were unclamped for brain reperfusion. The animals were studied after 5 days of reperfusion (R5d), or after 11 weeks of reperfusion (long-term studies), and then they were euthanized under deep anesthesia. Animals from the sham control group were handled in the same way, but without occlusion of the carotid arteries. Ischemic animals were treated with vehicle solution (ethanol/polyethylene glycol 400/saline, 1:300:200 v/v), or with nitrones QN23 or NXY-059 in vehicle solution, as a single injection through the tail vein at the onset of reperfusion. For the therapeutic window experiments, the animals were also treated at reperfusion times 1, 3, and 6 h after ischemia. The treatments were prepared by an independent researcher and administered with concealed allocation. Treatments were administered in a randomized order obtained by a computer-based randomization program. […]
After 5 days of post-ischemic reperfusion (R5d), neurological deficits were evaluated in the animals by a researcher blind to the treatment allocation. General status and mobility impairments were quantified according to a scale previously validated in an entire cohort of R5d animals (n = 20). […]

SMILES: COc1ccc2nc(Cl)c(/C=[N+](\[O-])C(C)(C)C)cc2c1 [QN23, (Z)-N-tert-Butyl-1-(2-chloro-6-methoxyquinolin-3-yl)methanimine Oxide]
- Neuroprotective effect (neuronal death and neuronal apoptosis assays) [1]: significant neuroprotective effect
- Neurofunctional impairment compared with vehicle ([2]; 1.5 mg/kg and 2.5 mg/kg i.v. 20 min after end of tMCAO): significantly reduced
- Animals that died within 24 h ([2]; 2.5 mg/kg i.v., tMCAO): one
- Neurofunctional impairment compared with vehicle ([2]; 4 mg/kg i.v. 20 min after end of tMCAO): not at 4 mg/kg
- Animals that died before 24 h ([2]; 4 mg/kg i.v., tMCAO): four
- Anti-inflammatory activity [3]: showed anti-inflammatory properties
- General status (neurological deficit score, NDS) compared with vehicle ([4]; 2.0 mg/kg i.v. at reperfusion onset): significant improvement
- Therapeutic window: administration time after reperfusion onset with significantly reduced NDS ([4]; 2.0 mg/kg i.v., times tested 0, 1, 3, 6 h): up to 3 h
